The test system of one data set is basophils. The data set is described as follows: Basophil activation in human whole blood (Flow2 CAST kit, CD63 flow cytometry). Type of data set: cell-based. The procedure:
Effect on basophil activation was measured in human whole blood using the Flow2 CAST® kit (Buhlmann Laboratories AG, Baselstrasse, Switzerland) following the protocol provided by the manufacturer with minor modifications. Human whole blood was collected into K2-EDTA venipuncture tubes. Whole blood samples were treated with either DMSO (0.3% final) or a serial dilution of compounds in DMSO for 60 minutes at 37° C. Basophils were then activated either with anti-FcεRI mAb or with fMLP. To activate basophils using the anti-FcεRI mAb; 50 μL of whole blood was mixed with 110 μL of stimulation buffer (B-BAT-STB) and 20 μl of anti-FcεRI (B-BAT-STCON). To activate basophils with fMLP; 50 μL of whole blood was mixed with 80 μL of stimulation buffer (B-BAT-STB) and 50 μL of fMLP (B-CCR-FMLP). Stimulation buffer was used as a negative control. 20 μL of the staining reagent (combination of anti-human CD63-FITC and anti-human CCR3-PE mAbs) was then added to each tube. The tubes were mixed gently and incubated for 25 minutes at 37° C. Subsequently, erythrocytes were lysed and fixed by the addition of 2 mL of lysing solution (B-BAT-LYR) for 10 minutes at room temperature. Cells were pelleted by centrifugation at 1200 rpm for 10 minutes at room temperature in a swing-out rotor. Supernatant was aspirated and cell pellet resuspended in 400 μL of wash buffer. Flow cytometric analysis of the basophil activation was performed on a FC500MPL flow cytometer (Beckman Coulter Inc., Fullerton, Calif.). CCR3-staining and side scatter were applied to gate at least 200 basophils that expressed a high density of CCR3. The percent CD63 positive cells within the gated basophil population were determined in different treatment groups and normalized to the vehicle control (0.3% DMSO) with anti-FcεRI mAb of fMLP stimulus as 100%. Final compound concentration was adjusted to correct for dilution effect of added reagents. The EC50 values were calculated from the analysis of the dose-response curves to a four-parameter equation.

A short description of data set [1]: Hepatocyte stability (parent drug disappearance in cryopreserved hepatocytes). Type of data set: in vitro ADME, human. Particulars: human, human hepatocytes. The procedure: This assay was used to evaluate the metabolic stability of test articles (TA) following incubation in cryopreserved hepatocytes by monitoring parent drug disappearance via LC/MC. The TA was incubated with 1 million hepatocytes/mL at 2 μM substrate in duplicate. The incubation was carried out at 37° C. with 5% CO2 and saturating humidity. Samples were taken at 0, 1, 2, and 4 hours to monitor the disappearance of TA and a half-life (t1/2) was determined. Table 3 below summarizes the human hepatocyte t1/2 values (hours) collected in the Example.

In another data set the target is PI3Kδ (Homo sapiens (Human), UniProt O00329). The data set is described as follows: Enzymatic activity of PI3K isoforms, TR-FRET assay (PI3Kδ). The data set is classed as biochemical. Particulars: 2× Km ATP, geometric mean if more than one value. The procedure, abridged: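 Recombinant heterodimeric PI3Kβ or PI3Kδ (25-50 pM) was run with 2 μM PIP2 and 2× Km ATP (75-500 μM) at pH 7.4, for 30 min at 25° C. PIP3 formation was detected by TR-FRET displacement of labeled PIP3 from Eu-GRP-1. IC50 values in nM come from four-parameter fits, as geometric means.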
Sequence of PI3Kδ (O00329 whole entry, canonical isoform): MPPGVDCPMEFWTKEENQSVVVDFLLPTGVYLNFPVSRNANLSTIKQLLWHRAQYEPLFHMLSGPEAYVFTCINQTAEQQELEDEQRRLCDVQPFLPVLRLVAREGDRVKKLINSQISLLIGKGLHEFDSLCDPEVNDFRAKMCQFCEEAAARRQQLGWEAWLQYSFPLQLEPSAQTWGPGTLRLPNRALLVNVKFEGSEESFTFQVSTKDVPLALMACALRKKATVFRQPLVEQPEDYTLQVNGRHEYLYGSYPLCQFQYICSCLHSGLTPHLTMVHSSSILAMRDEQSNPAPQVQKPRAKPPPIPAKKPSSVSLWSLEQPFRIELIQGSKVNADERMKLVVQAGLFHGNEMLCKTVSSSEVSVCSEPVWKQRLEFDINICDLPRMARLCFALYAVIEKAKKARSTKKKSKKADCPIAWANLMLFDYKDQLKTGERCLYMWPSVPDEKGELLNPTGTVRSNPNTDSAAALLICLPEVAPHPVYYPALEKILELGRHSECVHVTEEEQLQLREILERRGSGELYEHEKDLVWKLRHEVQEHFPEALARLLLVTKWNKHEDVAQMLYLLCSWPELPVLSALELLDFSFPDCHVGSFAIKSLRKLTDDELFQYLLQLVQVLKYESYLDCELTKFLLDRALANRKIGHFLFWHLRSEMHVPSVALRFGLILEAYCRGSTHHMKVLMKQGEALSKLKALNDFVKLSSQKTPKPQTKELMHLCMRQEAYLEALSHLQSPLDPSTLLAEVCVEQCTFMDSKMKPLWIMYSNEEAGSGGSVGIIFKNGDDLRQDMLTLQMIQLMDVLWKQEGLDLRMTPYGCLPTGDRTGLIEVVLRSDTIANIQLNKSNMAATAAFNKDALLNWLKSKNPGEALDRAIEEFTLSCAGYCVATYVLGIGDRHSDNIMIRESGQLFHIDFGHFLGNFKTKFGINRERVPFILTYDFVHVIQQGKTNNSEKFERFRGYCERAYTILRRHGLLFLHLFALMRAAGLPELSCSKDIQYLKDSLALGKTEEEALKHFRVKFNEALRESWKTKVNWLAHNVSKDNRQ
Sequence of PI3Kδ (P27986 whole entry partner, canonical isoform): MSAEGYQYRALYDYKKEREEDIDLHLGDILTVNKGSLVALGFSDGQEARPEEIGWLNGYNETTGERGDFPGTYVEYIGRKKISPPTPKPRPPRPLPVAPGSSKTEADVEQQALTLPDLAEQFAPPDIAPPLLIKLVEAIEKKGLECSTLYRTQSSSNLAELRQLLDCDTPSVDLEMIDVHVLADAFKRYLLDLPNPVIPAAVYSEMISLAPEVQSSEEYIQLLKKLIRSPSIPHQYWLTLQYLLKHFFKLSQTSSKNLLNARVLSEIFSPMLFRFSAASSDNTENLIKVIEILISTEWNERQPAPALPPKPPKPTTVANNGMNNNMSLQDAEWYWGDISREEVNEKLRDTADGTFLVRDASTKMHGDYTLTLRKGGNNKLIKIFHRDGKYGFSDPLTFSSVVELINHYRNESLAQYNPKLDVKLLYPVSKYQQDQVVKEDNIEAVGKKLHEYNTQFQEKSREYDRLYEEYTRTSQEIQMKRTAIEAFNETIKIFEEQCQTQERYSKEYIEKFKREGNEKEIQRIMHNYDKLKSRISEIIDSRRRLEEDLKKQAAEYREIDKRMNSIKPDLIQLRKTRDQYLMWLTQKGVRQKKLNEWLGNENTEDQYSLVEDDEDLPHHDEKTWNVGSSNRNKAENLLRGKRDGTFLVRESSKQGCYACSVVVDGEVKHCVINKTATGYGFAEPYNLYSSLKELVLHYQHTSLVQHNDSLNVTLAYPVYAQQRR

The mark [2] stands for this setting: Homo sapiens, class symbol, human whole blood, basophils activated with anti-FcεRI mAb or fMLP, percent CD63 positive cells.
The mark [3] stands for this setting: Homo sapiens, human whole blood, basophils activated with anti-FcεRI mAb or fMLP, percent CD63 positive cells, geometric mean.
[4] abbreviates: cryopreserved human hepatocytes, class symbol, 2 μM substrate, 37° C.
The mark [5] stands for this setting: cryopreserved human hepatocytes, 2 μM substrate, 37° C., Table 3.
Setting [6] is: Homo sapiens, basophil activation in human whole blood, comparison Table 4.
The mark [7] stands for this setting: cryopreserved hepatocytes, comparison Table 4.

Each structure is given as a SMILES string.

As usually defined, the EC50 is the concentration that produces a half-maximal response. The half-life is how long it takes for the measured level to halve. One may read the IC50 as the concentration that gives 50% inhibition.

On to `N#Cc1c(N)nc(N)nc1N[C@H](c1nc2c(Cl)ccc(Cl)c2c(=O)n1-c1cccnc1)C1CC1` [Compound 28, (S)-2,4-diamino-6-(cyclopropyl(5,8-dichloro-4-oxo-3-(pyridin-3-yl)-3,4-dihydroquinazolin-2-yl)methylamino)pyrimidine-5-carbonitrile], for which the values for the 50% effective concentration (EC50) in the data set with basophils (setting [2]) and in the data set on basophils (setting [3]) were 1 to 10 nM and 4 nM, respectively. Moreover, the half-life at 2 μM in data set [1] (setting [4]) was 6 to 10 h; in data set [1] (setting [5]), 9 h. The molecule also displayed an IC50 against PI3Kδ of 0.6 nM.

For `C[C@H](Nc1nc(N)nc(N)c1C#N)c1nc2c(F)ccc(Cl)c2c(=O)n1-c1cccnc1` [Compound 24, (S)-2,4-diamino-6-(1-(5-chloro-8-fluoro-4-oxo-3-(pyridin-3-yl)-3,4-dihydroquinazolin-2-yl)ethylamino)pyrimidine-5-carbonitrile], the EC50 in the data set with basophils (setting [2]) is less than 1 nM; with basophils (setting [3]), 0.3 nM. For the same molecule, the half-life at 2 μM in data set [1] (setting [4]) and in data set [1] (setting [5]) was more than 10 h throughout. This molecule also yielded an IC50 at PI3Kδ of 0.4 nM.

As for `N#Cc1c(N)nc(N)nc1N[C@H](c1nc2cccc(Cl)c2c(=O)n1-c1cncc(F)c1)C1CC1` [Compound 21, (S)-2,4-diamino-6-((5-chloro-3-(5-fluoropyridin-3-yl)-4-oxo-3,4-dihydroquinazolin-2-yl)(cyclopropyl)methylamino)pyrimidine-5-carbonitrile], the figures for the EC50 with basophils (setting [2]) and in the data set with basophils (setting [3]) were 1 to 10 nM and 4 nM, respectively. Further, the half-life at 2 μM in data set [1] (setting [4]) and in data set [1] (setting [5]) was more than 10 h in each case. The molecule further displayed an IC50 at PI3Kδ of 2 nM.

For `C[C@H](Nc1nc(N)nc(N)c1C#N)c1nc2cccc(Cl)c2c(=O)n1-c1cncc(C(F)F)c1` [Compound 15, (S)-2,4-diamino-6-(1-(5-chloro-3-(5-(difluoromethyl)pyridin-3-yl)-4-oxo-3,4-dihydroquinazolin-2-yl)ethylamino)pyrimidine-5-carbonitrile], the figures for the EC50 in the data set on basophils (setting [2]) and with basophils (setting [3]) were 10 to 50 nM and 19 nM, respectively. In addition, the half-life at 2 μM in data set [1] (setting [4]) and in data set [1] (setting [5]) was more than 10 h in each case. In addition, it took 4 nM to reach half-maximal inhibition on PI3Kδ (IC50).

In the case of `N#Cc1c(N)nc(N)nc1N[C@@H](CC1CC1)c1nc2c(F)ccc(Cl)c2c(=O)n1-c1cccnc1` [Compound 29, (S)-2,4-diamino-6-(1-(5-chloro-8-fluoro-4-oxo-3-(pyridin-3-yl)-3,4-dihydroquinazolin-2-yl)-2-cyclopropylethylamino)pyrimidine-5-carbonitrile], the EC50 was 10 to 50 nM in the data set with basophils (setting [2]) and 10 nM in the data set with basophils (setting [3]). In addition, the half-life at 2 μM in data set [1] (setting [4]) and in data set [1] (setting [5]) was more than 10 h in each case. In addition, 8 nM corresponded to half-maximal inhibition on PI3Kδ (IC50).

`C[C@H](Nc1nc(N)nc(N)c1C#N)c1nc2c(F)ccc(Cl)c2c(=O)n1-c1cncc(F)c1` [Compound 31, (S)-2,4-diamino-6-(1-(5-chloro-8-fluoro-3-(5-fluoropyridin-3-yl)-4-oxo-3,4-dihydroquinazolin-2-yl)ethylamino)pyrimidine-5-carbonitrile]: the EC50 in the data set on basophils (setting [2]) is less than 1 nM; in the data set with basophils (setting [3]) it was 0.5 nM. Moreover, the half-life at 2 μM in data set [1] (setting [4]) and in data set [1] (setting [5]) was more than 10 h in each case. This molecule also returned a concentration for half-maximal inhibition (IC50) on PI3Kδ of 1 nM.

Take `N#Cc1c(N)nc(N)nc1N[C@H](c1nc2c(F)ccc(Cl)c2c(=O)n1-c1cncc(F)c1)C1CC1` [Compound 33, (S)-2,4-diamino-6-((5-chloro-8-fluoro-3-(5-fluoropyridin-3-yl)-4-oxo-3,4-dihydroquinazolin-2-yl)(cyclopropyl)methylamino)pyrimidine-5-carbonitrile]: the EC50 in the data set with basophils (setting [2]) was 1 to 10 nM; in the data set on basophils (setting [3]), 5 nM. The half-life at 2 μM in data set [1] (setting [4]) and in data set [1] (setting [5]) was more than 10 h throughout. On PI3Kδ, this molecule displayed an IC50 of 2 nM.

Take `N#Cc1c(N)nc(N)nc1N[C@H](c1nc2cccc(Cl)c2c(=O)n1-c1cccnc1)C1CC1` [Compound 3, (S)-2,4-diamino-6-((5-chloro-4-oxo-3-(pyridin-3-yl)-3,4-dihydroquinazolin-2-yl)(cyclopropyl)methylamino)pyrimidine-5-carbonitrile]: the results for the EC50 with basophils (setting [2]) and in the data set on basophils (setting [3]) were 1 to 10 nM and 2 nM, respectively. Further, the half-life at 2 μM in data set [1] (setting [4]) and in data set [1] (setting [5]) was more than 10 h each time. It took 0.6 nM to reach half-maximal inhibition against PI3Kδ (IC50).

Regarding `C[C@H](Nc1nc(N)nc(N)c1C#N)c1nc2c(Cl)cccc2c(=O)n1-c1cccnc1` [Compound 22, (S)-2,4-diamino-6-(1-(8-chloro-4-oxo-3-(pyridin-3-yl)-3,4-dihydroquinazolin-2-yl)ethylamino)pyrimidine-5-carbonitrile], the figures for the EC50 in the data set with basophils (setting [2]) and in the data set with basophils (setting [3]) were 1 to 10 nM and 5 nM, respectively. The figures for the half-life at 2 μM in data set [1] (setting [4]) and in data set [1] (setting [5]) were 6 to 10 h and 9 h, respectively. At PI3Kδ, this molecule had an IC50 of 6 nM.

In the case of `C[C@H](Nc1nc(N)nc(N)c1C#N)c1nc2cccc(Cl)c2c(=O)n1-c1cncc(C2CC2)c1` [Compound 19, (S)-2,4-diamino-6-(1-(5-chloro-3-(5-cyclopropylpyridin-3-yl)-4-oxo-3,4-dihydroquinazolin-2-yl)ethylamino)pyrimidine-5-carbonitrile], the EC50 was 1 to 10 nM in the data set with basophils (setting [2]) and 7 nM in the data set with basophils (setting [3]). Further, the half-life at 2 μM in data set [1] (setting [4]) is 6 to 10 h; in data set [1] (setting [5]) it was 7 h. Besides, half-maximal inhibition against PI3Kδ (IC50) required 5 nM.

In the case of `C[C@H](Nc1nc(N)nc(N)c1C#N)c1nc2c(Cl)ccc(Cl)c2c(=O)n1-c1cccnc1` [Compound 23, (S)-2,4-diamino-6-(1-(5,8-dichloro-4-oxo-3-(pyridin-3-yl)-3,4-dihydroquinazolin-2-yl)ethylamino)pyrimidine-5-carbonitrile], the EC50 in the data set with basophils (setting [2]) is less than 1 nM; in the data set on basophils (setting [3]) it was 0.8 nM. For the same molecule, the half-life at 2 μM in data set [1] (setting [4]) and in data set [1] (setting [5]) was more than 10 h each time. This molecule gave an IC50 at PI3Kδ of 0.7 nM.

On to `C[C@H](Nc1nc(N)nc(N)c1C#N)c1nc2c(Cl)ccc(Cl)c2c(=O)n1-c1cncc(F)c1` [Compound 30, (S)-2,4-diamino-6-(1-(5,8-dichloro-3-(5-fluoropyridin-3-yl)-4-oxo-3,4-dihydroquinazolin-2-yl)ethylamino)pyrimidine-5-carbonitrile], for which the results for the EC50 with basophils (setting [2]) and with basophils (setting [3]) were less than 1 nM and 0.7 nM, respectively. For the same molecule, the half-life at 2 μM in data set [1] (setting [4]) is 6 to 10 h; in data set [1] (setting [5]), 9 h. The IC50 on PI3Kδ was found to be 1 nM.

For the molecule `C[C@H](Nc1nc(N)nc(N)c1C#N)c1nc2cccc(Cl)c2c(=O)n1-c1cccnc1` [Compound 1, (S)-2,4-diamino-6-((1-(5-chloro-4-oxo-3-(pyridin-3-yl)-3,4-dihydroquinazolin-2-yl)ethyl)amino)pyrimidine-5-carbonitrile], the results for the EC50 in the data set with basophils (setting [6]), in the data set with basophils (setting [2]) and in the data set with basophils (setting [3]) were less than 1 nM, less than 1 nM and 0.9 nM, respectively. The half-life at 2 μM in data set [1] (setting [4]) was more than 10 h; in data set [1] (setting [5]), more than 10 h; in data set [1] (cryopreserved human hepatocytes, comparison Table 4), more than 10 h. Besides, it took 0.6 nM to reach half-maximal inhibition at PI3Kδ (IC50).

Consider `C[C@H](Nc1nc(N)nc(N)c1C#N)c1nc2cccc(Cl)c2c(=O)n1-c1ccccc1` [Compound Z, reference compound], for which the EC50 in the data set with basophils (basophil activation in human whole blood, comparison Table 4) was less than 1 nM. Also, in data set [1] (setting [7]), the half-life at 2 μM is less than 5 h.

Turning to `C[C@H](Nc1ncnc2[nH]cnc12)c1nc2cccc(Cl)c2c(=O)n1-c1ccccc1` [Compound X, reference compound], in the data set with basophils (setting [6]), the EC50 was more than 5 nM. Moreover, in data set [1] (setting [7]), the half-life at 2 μM was less than 2 h.

Consider `C[C@H](Nc1ncnc(N)c1C#N)c1nc2cccc(Cl)c2c(=O)n1-c1ccccc1` [Compound Y, reference compound], for which the EC50 in the data set with basophils (setting [6]) is more than 10 nM. Moreover, the half-life at 2 μM in data set [1] (setting [7]) was less than 2 h.

Source of the values: patent publication US9221795B2, “Phosphatidylinositol 3-kinase inhibitors” (Gilead Sciences, Inc., priority 2013, dated 2015).
